Where no end group is shown, it is not given here. The star is where a group is joined. SO3H = O=S(=O)(O)*
Tested on: RF-48 cells
Assay: ghrelin release from RF-48 cells measured by enzyme immunoassay
Type: cell-based, human
Settings: 1 hour incubation with test compound, supernatant measured with EIA kit, compared with control and control+vehicle (FIG. 1)
Protocol: These test compounds were made as 100× stock solutions by dissolving them in pure ethanol, as a vehicle. The test compounds were then diluted 1/100 in the Leibovitz L-15 medium containing 0.5% foetal bovine serum (FBS).
Since the effect caused by these test compounds on ghrelin release by a RF-48 cell line was tested, RF-48 cells were grown during incubation at 37° C. in Leibovitz's L15 medium with 2 mM L-glutamine and containing 10% (vol/vol) FBS in the absence of CO2.
After cell confluence was obtained, the cells were plated in 24-well cultures plates (1×10^5 cells/well). Several wells were subsequently exposed to one of the test compounds as prepared above. For each type and concentration of test compound tested, a series of three tests was carried out.
After 1 hour of incubation of the thus-filled wells containing both the cells and the test compound at the same conditions as those applied during growing of the RF-48 cells, a sample was taken from each well to measure ghrelin release.
Each sample was centrifuged at 3000 rpm to remove the cells from the sample and the supernatant (containing the ghrelin formed as well as the medium and the test compound) was transferred to a separate tube. The ghrelin release was measured using a commercial enzyme immunoassay kit (from Phoenix Pharmaceuticals, Belmont, Calif., USA). […]

Substance: Tyr(SO3H]27)Cholecystokinin fragment 26-33 Amide (DY(SO3H)MGWMDF-NH2; UniProt P06307 96-103, looked up) [CCK]
- ghrelin release: stimulate the release of ghrelin
